Reference: article PMC3909116 (PLoS ONE, 2014)
Where two headings read alike, the source gives them in different places.

Experiments:
M. tuberculosis = conditions: against M. tuberculosis; cited from earlier work
M. tuberculosis H37Rv = type: in vivo
in vivo = experiment: in vivo; parameters: species or system Balb/c mice; conditions: male, Balb/c, mouse, po, 30 mg/kg
Method: Samples were analyzed by LC-MS.
(A) Mouse survival curves from maximum tolerated dose study. All mice (n = 5) received one dose daily 6 times weekly for 4 weeks. 80% aqueous propylene glycol, (vehicle control).
Half-life and sequential exposure time of drug in serum is critical for its in vivo efficacious activity.

Compound	MIC (M. tuberculosis)	other results
O=[N+]([O-])c1cn2c(n1)OC[C@@H](OCc1ccc(OC(F)(F)F)cc1)C2 [PA-824]	0.015 to 0.25 µg/mL	–
CC(=O)NC[C@H]1CN(c2ccc(N3CCOCC3)c(F)c2)C(=O)O1 [Linezolid]	0.25 to 1 µg/mL	–
NNC(=O)c1ccncc1 [INH, isoniazid]	0.3 µM	reduction of M. tuberculosis bacterial load in the spleen (M. tuberculosis H37Rv; relative to counts at initiation of chemotherapy (4.26 log10), Balb/c mice, oral once daily 6 times per week for 4 weeks, ND-09759 30 mg/kg, INH 25 mg/kg, RMP 20 mg/kg): 0.38 log10; reduction of M. tuberculosis bacterial load in the lung (M. tuberculosis H37Rv; relative to counts at initiation of chemotherapy (5.18 log10), Balb/c mice, oral once daily 6 times per week for 4 weeks, ND-09759 30 mg/kg, INH 25 mg/kg, RMP 20 mg/kg): 0.27 log10
CC(C)=CCC/C(C)=C/CNCCNC1C2CC3CC(C2)CC1C3 (centres unmarked) [SQ109]	0.7 to 1.56 µM	–
COc1nc2ccc(Br)cc2cc1[C@@H](c1ccccc1)[C@@](O)(CCN(C)C)c1cccc2ccccc12 [TMC 207]	0.030−0.120 µg/ml	–
CO[C@H]1/C=C/O[C@@]2(C)Oc3c(C)c(O)c4c(O)c(c(/C=N/N5CCN(C)CC5)c(O)c4c3C2=O)NC(=O)/C(C)=C\C=C\[C@H](C)[C@H](O)[C@@H](C)[C@@H](O)[C@@H](C)[C@H](OC(C)=O)[C@@H]1C [RMP, rifampicin]	0.003 µM	reduction of M. tuberculosis bacterial load in the lung (M. tuberculosis H37Rv; in vivo): 0.23 log10; reduction of M. tuberculosis bacterial load in the spleen (M. tuberculosis H37Rv; in vivo): 0.35 log10
C[C@]1(COc2ccc(N3CCC(Oc4ccc(OC(F)(F)F)cc4)CC3)cc2)Cn2cc([N+](=O)[O-])nc2O1 [Delamanid]	0.006 to 0.024 µg/mL	–
Cc1ccn2c(C(=O)NCc3ccc(Oc4ccc(Cl)cc4)cc3)c(C)nc2c1 [ND-09759, N-(4-(4-chlorophenoxy)benzyl)-2,7-dimethylimidazo[1,2-a]pyridine-3-carboxamide]	–	AUC(0-t) (in vivo): 22200 ng·h/mL; Cmax (in vivo): 2900 ng/mL; half-life (in vivo): 20.1 h
